Columns and labels:
Cc1ccc(C=O)cc1 = test: purified protein, by the assay type; details: other: aldehydes other than benzaldehyde; condition similar to the above-described condition; pH 5.2
Cc1cccc(C=O)c1 = test: purified protein, by the assay type; details: other: aldehydes other than benzaldehyde; condition similar to the above-described condition; pH 5.2
O=Cc1cccc2ccccc12 = test: purified protein, by the assay type; details: other: aldehydes other than benzaldehyde; condition similar to the above-described condition; pH 5.2
R-ChHNL [1] = biological target: T1, R-ChHNL (Chamberlinius hualienensis, UniProt A0A0H5BR52); test: Dynamic (kinetic) analysis, aldehyde substrates, Hanes-Woolf plot
R-ChHNL [2] = biological target: T1, R-ChHNL; test: Search of inhibitor of R-ChHNL activity (remaining activity); type: biochemical
R-ChHNL [3] = biological target: T1, R-ChHNL; test: Substrate identification by cyanohydrin synthetic reaction; type: biochemical; details: 50 mM carbonyl compound, 100 mM KCN, pH 4.2, 25° C., 5 minutes (aliphatic: 2 hours)
[4] = aldehydes other than benzaldehyde, condition similar to the above-described condition
[5] = aldehydes other than benzaldehyde, relative to benzaldehyde at pH 5.2 and 22° C.
[6] = concentration not given (1 mM or 0.1 mM), pH 7.0, 20° C., 60 minutes

R-ChHNL (Chamberlinius hualienensis)
Km (Cc1ccc(C=O)cc1): 5.0 mM
Vmax (Cc1ccc(C=O)cc1): 11900 µmol/min/mg
kcat (Cc1ccc(C=O)cc1): 4940 s⁻¹
kcat/Km (Cc1ccc(C=O)cc1): 989000 M⁻¹ s⁻¹
Km (Cc1cccc(C=O)c1): 9.9 mM
Vmax (Cc1cccc(C=O)c1): 14000 µmol/min/mg
kcat (Cc1cccc(C=O)c1): 5800 s⁻¹
kcat/Km (Cc1cccc(C=O)c1): 584000 M⁻¹ s⁻¹
Km (O=Cc1cccc2ccccc12): 0.65 mM
Vmax (O=Cc1cccc2ccccc12): 313 µmol/min/mg
kcat (O=Cc1cccc2ccccc12): 130 s⁻¹
kcat/Km (O=Cc1cccc2ccccc12): 199000 M⁻¹ s⁻¹

O=Cc1cccs1 [2-thiophenecarboxaldehyde]
Km (R-ChHNL [1]; [4]): 18.7 mM
Vmax (R-ChHNL [1]; [4]): 3522 µmol/min/mg
kcat (R-ChHNL [1]; [4]): 1459 s⁻¹
max S.A. (specific activity) (R-ChHNL [1]; [4]): 2403 U/mg
relative S.A. (R-ChHNL [1]; [5]): 32.3

O=S(=O)([O-])[O-].[Mn+2] [MnSO4]
Remaining activity (R-ChHNL [2]; [6]): 106%

N[C@@H](CCC(=O)N[C@@H](CS)C(=O)NCC(=O)O)C(=O)O [reduced glutathione]
Remaining activity (R-ChHNL [2]; pH 7): 93%

[Cl][Hg][Cl] [HgCl2]
Remaining activity (R-ChHNL [2]; [6]): 64%

NC(=S)Nc1ccccc1 [phenylthiourea]
Remaining activity (R-ChHNL [2]; [6]): 100%

Cc1ccccc1C=O [2-methylbenzaldehyde]
Km (R-ChHNL [1]; [4]): 3.1 mM
Vmax (R-ChHNL [1]; [4]): 2564.9 µmol/min/mg
kcat (R-ChHNL [1]; [4]): 1062.3 s⁻¹
max S.A. (specific activity) (R-ChHNL [1]; [4]): 2395 U/mg
relative S.A. (R-ChHNL [1]; [5]): 32.2

O=S(=O)([O-])[O-].[Zn+2] [ZnSO4]
Remaining activity (R-ChHNL [2]; [6]): 100%

[Cl][Cd][Cl] [CdCl2]
Remaining activity (R-ChHNL [2]; [6]): 99%

Cc1cccc(C=O)c1 [3-methylbenzaldehyde]
max S.A. (specific activity) (R-ChHNL [1]; [4]): 12657 U/mg
relative S.A. (R-ChHNL [1]; [5]): 170.3

O=[N+]([O-])[O-].[Ag+] [AgNO3]
Remaining activity (R-ChHNL [2]; [6]): 68%

CCOC(=O)OC(=O)OCC [diethylpyrocarbonate]
remaining activity at 1000 µM (R-ChHNL [2]; 1 mM, pH 7.0, 20° C., 60 minutes, read-out: Remaining activity): 100%
remaining activity at 10000 µM (R-ChHNL [2]; 10 mM, pH 7.0, 20° C., 60 minutes, read-out: Remaining activity): 79%

Cc1ccc(C=O)c(C)c1 [2,4-dimethylbenzaldehyde]
Km (R-ChHNL [1]; [4]): 0.94 mM
Vmax (R-ChHNL [1]; [4]): 632.2 µmol/min/mg
kcat (R-ChHNL [1]; [4]): 261.8 s⁻¹
max S.A. (specific activity) (R-ChHNL [1]; [4]): 654 U/mg
relative S.A. (R-ChHNL [1]; [5]): 8.8

CCN1C(=O)C=CC1=O [N-ethylmaleimide]
Remaining activity (R-ChHNL [2]; [6]): 100%

O[C@@H](CS)[C@@H](O)CS [DTT]
Remaining activity (R-ChHNL [2]; [6]): 100%

[Cl][Pb][Cl] [PbCl2]
Remaining activity (R-ChHNL [2]; 0.1 mM, pH 7.0, 20° C., 60 minutes): 98%
Remaining activity (R-ChHNL [2]; 1 mM, pH 7.0, 20° C., 60 minutes): 77%

O=C(O)c1cc(SSc2ccc([N+](=O)[O-])c(C(=O)O)c2)ccc1[N+](=O)[O-] [dithionitrobenzoic acid]
Remaining activity (R-ChHNL [2]; [6]): 97%

avidin: avidin, listed as biotin reagent
Remaining activity (R-ChHNL [2]; 100 μg/mL, pH 7.0, 20° C., 60 minutes): 96%

O=C1NC(=O)C(c2ccccc2)(c2ccccc2)N1 [diphenylhydantoin]
Remaining activity (R-ChHNL [2]; [6]): 100%

NN [hydrazine]
Remaining activity (R-ChHNL [2]; [6]): 100%

O=Cc1ccccc1 [benzaldehyde]
activity of R-ChHNL on the carbonyl compound as substrate (R-ChHNL [3]): recognizes
max S.A. (specific activity) (R-ChHNL [1]; pH5.2, 22° C.): 7433 U/mg
relative S.A. (R-ChHNL [1]; pH5.2, 22° C., the reference case (100)): 100
max S.A. (specific activity) (R-ChHNL [1]; pH5.8, 35° C.): 17141 U/mg
relative S.A. (R-ChHNL [1]; pH5.8, 35° C., relative to benzaldehyde at pH 5.2 and 22° C.): 230.6

[Cl][Fe]([Cl])[Cl] [FeCl3]
Remaining activity (R-ChHNL [2]; [6]): 100%

— patent US20170166879A1, “NOVEL (R)-HYDROXYNITRILE LYASE” (PUBLIC UNIVERSITY CORPORATION TOYAMA PREFECTURAL UNIVERSITY, priority 2014, published 2017)
